The source of these data is patent US4910196A, “Highly soluble antibacterially active organic salts of pyridobenzothiazines” (Mediolanum Farmaceutici Srl, priority 1986, dated 1990).

Structures are written as SMILES. Counter-ions that a name gives are not always drawn.

Data set [1] is described as follows: pH of the aqueous solution. Format: physicochemical. The note with it: for pH: in solution in water.
The nature of data set [2]: physchem. The following applies: water, Solubility in H2O.

Regarding `CN1CCN(c2c(F)cc3c(=O)c(C(=O)O)cn4c3c2SCC4)CC1` [Salt with malonic acid], the water solubility is 3 mg/mL. Moreover, the pH in data set [1] turned out to be 4.22.
Compound `CN1CCN(c2c(F)cc3c(=O)c(C(=O)O)cn4c3c2SCC4)CC1` [methanesulphonate, 9-fluoro-10[N-(4'-methyl)piperazinyl]-7-oxo-2,3-dihydro-7H-pyrido[1,2,3 de][1,4]benzothiazine-6-carboxylic acid methanesulphonate] registered a water solubility of 87 mg/mL. The pH result in data set [1] is “approximately 3”.
With `CN1CCN(c2c(F)cc3c(=O)c(C(=O)O)cn4c3c2SCC4)CC1` [Salt with L-tartaric acid], the water solubility came to 6 mg/mL. Besides, the pH in data set [1] was 4.09-4.10.
`CN1CCN(c2c(F)cc3c(=O)c(C(=O)O)cn4c3c2SCC4)CC1` [Salt with citric acid] gave a water solubility of 2.7 mg/mL. The pH in data set [1] is 3.99-4.00.
In the case of `CN1CCN(c2c(F)cc3c(=O)c(C(=O)O)cn4c3c2SCC4)CC1` [9-fluoro-10[N-(4'-methyl)piperazinyl]-7-oxo-2,3-dihydro-7H-pyrido[1,2,3 de][1,4]benzothiazine-6-carboxylic acid hydrochloride, reference compound], the water solubility was 8 mg/mL.
`CN1CCN(c2c(F)cc3c(=O)c(C(=O)O)cn4c3c2SCC4)CC1` [Salt with gluconic acid] yielded a water solubility of 360 mg/mL. Further, the solubility (in general, how much of the substance goes into solution per volume) in data set [2] worked out at 360 mg/mL. In data set [1] (in solution), the “pH values (in words)” value is “particularly high pH”. Besides, the pH in data set [1] is 5.07-5.10. For the same compound, in data set [1] (listed as gluconate), the pH result is “about 5”.
